Experimental data: patent US20200000916A1, “REGIONALLY ACTIVATED DRUG DELIVERY NANOPARTICLES” (The Regents of the University of California, priority 2013, published 2020)
Entries after “also recorded” stand apart in the source; their conditions may differ.

Tested on: PTK2 kidney epithelial cells
Test: Cellular localization by live fluorescence microscopy
Type: cell-based
Conditions: 2 μM, 2 hours incubation, before/without 365 nm light exposure; hydrochloride
Text: The intracellular localization of the DOX-PCB nanoparticles and pure DOX was studied using the PTK2 epithelial cell line. These cells were used because they are susceptible to DOX and remain flat during mitosis, allowing for enhanced visualization of the nuclear region. This visualization capability was important since one of the main therapeutic modes of action for DOX is through DNA intercalation. The DOX-PCB nanoparticles and pure DOX are both naturally fluorescent which allowed them to be easily tracked through the cell. The PTK2 cells were plated in glass bottom petri dishes (MatTek Corporation, Ashland, Mass.) and were incubated in advanced MEM Media from Gibco (Invitrogen, Grand Island, N.Y.) with 2% fetal bovine serum, nonessential amino acids, 110 mg/L sodium pyruvate, and without penicillin-streptomycin or L-Glutamine.
A 1 ml media solution of DOX-PCB nanoparticles was prepared by first adding 10×DPBS to a 4.1 μM solution of DOX-PCB nanoparticles in water to achieve a 1×DPBS concentration, and then adding the resulting solution to a phenol-red free formulation of the advanced MEM media described above to achieve a final DOX-PCB content of 2 μM. This spiked media sample was then added to the glass bottom petri dish along with PTK2 cells seeded which had the previous incubation media removed. […]

SMILES: COc1cccc2c1C(=O)c1c(O)c3c(c(O)c1C2=O)C[C@@](O)(C(=O)CO)C[C@@H]3O[C@H]1C[C@H](N)[C@H](O)[C@H](C)O1.Cl [DOX, Doxorubicin hydrochloride]
- intracellular localization: strongly associate with the cell nuclei; also recorded: associate strongly with the cell nuclei
